# Test results from ChEMBL document CHEMBL1201862, “PubChem BioAssay data set” (2004).
#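 Cultured in 96-well plates, cells were exposed to test compound for 48 hours across five concentrations. Here, GI50 denotes the concentration required for 50% inhibition of growth.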 Activity calls are given as the source filed them. Cut-off read from the data, not from the text of the source: active = GI50 up to about 1.1 µM and inactive = higher.
# Key:
# Experiment in all cases: NCI tumour cell line growth inhibition, 48 h
# [1] = tested on: OVCAR-4
# [2] = tested on: IGROV-1
# [3] = tested on: DMS-273
# [4] = tested on: SF-539
# [5] = tested on: TK-10
# [6] = tested on: ACHN
# [7] = tested on: OVCAR-8
# [8] = tested on: OVCAR-5
# [9] = tested on: U-251
# [10] = tested on: KM-20L2
# [11] = tested on: NCI-H226
# [12] = tested on: HOP-62
# [13] = tested on: CAKI-1
# [14] = tested on: A549
# [15] = tested on: HCT-116
# [16] = tested on: UACC-62
# [17] = tested on: M14
# [18] = tested on: DMS-114
# [19] = tested on: HOP-92
# [20] = tested on: HT-29
# [21] = tested on: RXF 631
# [22] = tested on: NCI-H460
# [23] = tested on: SF-295
# [24] = tested on: 786-0
# [25] = tested on: HCT-15
# [26] = tested on: SK-OV-3
# [27] = tested on: Malme-3M
# [28] = tested on: RXF 393
# [29] = tested on: MOLT-4
# [30] = tested on: SK-MEL-2
# [31] = tested on: NCI-H522
# [32] = tested on: M19-MEL
# [33] = tested on: NCI-H23
# [34] = tested on: SW-620
# [35] = tested on: SK-MEL-5
# [36] = tested on: SNB-19
# [37] = tested on: XF498
# [38] = tested on: SNB-78
# [39] = tested on: LOX IMVI
# [40] = tested on: SNB-75
# [41] = tested on: EKVX
# [42] = tested on: HCC 2998
# [43] = tested on: RPMI-8226
# [44] = tested on: HOP-18
# [45] = tested on: HL-60
# [46] = tested on: DLD-1
# [47] = tested on: OVCAR-3
# [48] = tested on: KM12
# [49] = tested on: UACC-257
# [50] = tested on: COLO 205
# [51] = tested on: SK-MEL-28
# [52] = tested on: UO-31
# [53] = tested on: K562
# [54] = tested on: SF-268
# [55] = tested on: SR
# [56] = tested on: SN12C
# [57] = tested on: CCRF-CEM
# [58] = tested on: LXFL 529
structure (smiles),measurement,setting,value
CCCCOP1(=O)C=C(C)C(=C(Cl)Cl)C(C)=C1 (centres undefined),GI50,[1],23.8 µM (inactive)
same,GI50,[2],14.8 µM (inactive)
same,GI50,[3],3.63 µM (inactive)
same,GI50,[4],23.6 µM (inactive)
same,GI50,[5],11.2 µM (inactive)
same,GI50,[6],6.43 µM (inactive)
same,GI50,[7],17.9 µM (inactive)
same,GI50,[8],45.1 µM (inactive)
same,GI50,[9],6.97 µM (inactive)
same,GI50,[10],2.31 µM (inactive)
same,GI50,[11],3.38 µM (inactive)
same,GI50,[12],13.9 µM (inactive)
same,GI50,[13],5.83 µM (inactive)
same,GI50,[14],6.58 µM (inactive)
same,GI50,[15],2.3 µM (inactive)
same,GI50,[16],7.01 µM (inactive)
same,GI50,[17],11.6 µM (inactive)
same,GI50,[18],3.48 µM (inactive)
same,GI50,[19],1.5 µM (inactive)
same,GI50,[20],4.33 µM (inactive)
same,GI50,[21],16.9 µM (inactive)
same,GI50,[22],13 µM (inactive)
same,GI50,[23],6.61 µM (inactive)
same,GI50,[24],12.5 µM (inactive)
same,GI50,[25],11.5 µM
same,GI50,[26],19.5 µM (inactive)
same,GI50,[27],14.1 µM (inactive)
same,GI50,[28],8.51 µM (inactive)
same,GI50,[29],3.02 µM (inactive)
same,GI50,[30],1.98 µM (inactive)
same,GI50,[31],5.45 µM (inactive)
same,GI50,[32],11.5 µM (inactive)
same,GI50,[33],12.4 µM (inactive)
same,GI50,[34],3.98 µM (inactive)
same,GI50,[35],3.84 µM (inactive)
same,GI50,[36],25.8 µM (inactive)
same,GI50,[37],13.6 µM (inactive)
same,GI50,[38],0.925 µM (active)
same,GI50,[39],5.21 µM (inactive)
same,GI50,[40],11.4 µM (inactive)
same,GI50,[41],47.4 µM (inactive)
same,GI50,[42],22.3 µM (inactive)
same,GI50,[43],2.74 µM (inactive)
same,GI50,[44],22.7 µM (inactive)
same,GI50,[45],2.4 µM (inactive)
same,GI50,[46],16.2 µM (inactive)
same,GI50,[47],17.9 µM (inactive)
same,GI50,[48],2 µM (inactive)
same,GI50,[49],5.43 µM (inactive)
same,GI50,[50],5.25 µM (inactive)
same,GI50,[51],8.17 µM (inactive)
same,GI50,[52],19.5 µM (inactive)
same,GI50,[53],3.85 µM (inactive)
same,GI50,[54],5.56 µM (inactive)
same,GI50,[55],3.2 µM (inactive)
same,GI50,[56],7.31 µM (inactive)
same,GI50,[57],4.2 µM (inactive)
Cc1cc2c(=O)c3ccccc3[nH]c2c(C(N)=O)c1C,GI50,[1],> 100 µM (inactive)
same,GI50,[2],> 100 µM (inactive)
same,GI50,[4],> 100 µM (inactive)
same,GI50,[5],> 100 µM (inactive)
same,GI50,[6],> 100 µM (inactive)
same,GI50,[7],> 100 µM (inactive)
same,GI50,[8],> 100 µM (inactive)
same,GI50,[9],> 100 µM (inactive)
same,GI50,[10],> 100 µM (inactive)
same,GI50,[11],> 100 µM (inactive)
same,GI50,[13],> 100 µM (inactive)
same,GI50,[14],> 100 µM (inactive)
same,GI50,[15],> 100 µM (inactive)
same,GI50,[16],> 100 µM (inactive)
same,GI50,[17],> 100 µM (inactive)
same,GI50,[18],> 100 µM (inactive)
same,GI50,[20],> 100 µM (inactive)
same,GI50,[21],> 100 µM (inactive)
same,GI50,[22],> 100 µM (inactive)
same,GI50,[23],> 100 µM (inactive)
same,GI50,[24],> 100 µM (inactive)
same,GI50,[25],> 100 µM
same,GI50,[26],> 100 µM (inactive)
same,GI50,[27],> 100 µM (inactive)
same,GI50,[28],> 100 µM (inactive)
same,GI50,[29],> 100 µM (inactive)
same,GI50,[30],> 100 µM (inactive)
same,GI50,[31],> 100 µM (inactive)
same,GI50,[32],> 100 µM (inactive)
same,GI50,[33],> 100 µM (inactive)
same,GI50,[34],> 100 µM (inactive)
same,GI50,[35],> 100 µM (inactive)
same,GI50,[36],> 100 µM (inactive)
same,GI50,[37],> 100 µM (inactive)
same,GI50,[38],> 100 µM (inactive)
same,GI50,[39],> 100 µM (inactive)
same,GI50,[40],> 100 µM (inactive)
same,GI50,[41],> 100 µM (inactive)
same,GI50,[43],> 100 µM (inactive)
same,GI50,[44],> 100 µM (inactive)
same,GI50,[46],> 100 µM (inactive)
same,GI50,[58],> 100 µM (inactive)
same,GI50,[47],> 100 µM (inactive)
same,GI50,[48],> 100 µM (inactive)
same,GI50,[49],> 100 µM (inactive)
same,GI50,[50],> 100 µM (inactive)
same,GI50,[51],> 100 µM (inactive)
same,GI50,[52],> 100 µM (inactive)
same,GI50,[53],> 100 µM (inactive)
same,GI50,[54],> 100 µM (inactive)
same,GI50,[56],> 100 µM (inactive)
same,GI50,[57],> 100 µM (inactive)
